The series in a line: Transmission of aqueous vitamin / castor oil ethoxylate formulations (Turbiscan LAb). Type of series: physicochemical. To be noted: ingredients preheated to 50° C. Here is the method: Castor oil ethoxylates were evaluated in formulations with various vitamins by mixing 4 g of a vitamin with 4 g of the castor oil ethoxylate and subsequently adding 28 g water. All ingredients were preheated to 50° C. The transmission (light passing the through the emulsion) was measured using standard Turbiscan™ LAb equipment ex Formulaction. In the evaluation of the samples the highest transmission is looked for, since it indicates a clearer (and better) formulation.

[1] abbreviates: Comparative Example B: 4 g vitamin + 4 g CO36EO + 28 g water, unit assumed.
Where [2] appears, read: Example 1: 4 g vitamin + 4 g CO20EO + 28 g water, higher = clearer, better, unit assumed.

Structures are written as SMILES.

For `CC(=O)OC/C=C(C)/C=C/C=C(C)/C=C/C1=C(C)CCCC1(C)C` [Vit A acetate], the “transmission (light passing through the emulsion)” value reads like this: (Comparative Example A: 4 g vitamin + 4 g CO28EO + 28 g water) “Not stable”; under setting [1], 0%; under setting [2], 2.2%.

For `C=C1CC[C@H](O)C/C1=C/C=C1\CCC[C@]2(C)[C@@H]([C@H](C)CCCC(C)C)CC[C@@H]12` [Vit D3], the transmission (light passing through the emulsion) runs as follows: (Comparative Example A: 4 g vitamin + 4 g CO28EO + 28 g water, unit assumed) 64.4%; under setting [1], 2%; under setting [2], 56.7%.

The values above are taken from patent US8318196B2, “Formulations comprising a vitamin and the use thereof to make fortified feed and personal care formulations” (Akzo Nobel N.V., priority 2006, dated 2012).
